From article PMC8162404, “Proteomimetic surface fragments distinguish targets by function” (Chemical Science, 2020) come the findings set out here.

The target of one assay is T1, S100B (Homo sapiens, UniProt P04271).
T1 construct: made in house; host or cells: Escherichia coli BL21(DE3)
T1 sequence (P04271 1-92): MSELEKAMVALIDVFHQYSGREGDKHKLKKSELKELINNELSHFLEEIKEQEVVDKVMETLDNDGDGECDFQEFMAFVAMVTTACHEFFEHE
Briefly: Pull-down assay with immobilized protein and LSM libraries. As to conditions: for Kd: H14 library, 1:1 binding assumed, read-out: Surface mapping KD (apparent); for Affinity class of probe (high, medium, low) in pull-down: H14 probes selected for validation. The class given is binding. An outline of the steps:
(§1)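 Buffers were HEPES pH 7.4 with 150 mM NaCl, plus 1 mM TCEP and 1 mM CaCl2 (50 mM HEPES) for S100A4 and S100B, 1 mM TCEP for Gal-1, and no additive for RecQ-WH. Immobilized protein at 64 µM was equilibrated 30 min with the LSM sublibrary, and unbound probes were measured by LC-MS.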

For a further assay, the target named is T2, RecQ-WH (Escherichia coli, UniProt P15043).
T2 construct: coding for residues 408– 523 of E. coli RecQ; made in house; host or cells: E. coli BL21(DE3)
T2 sequence (P15043 408-523): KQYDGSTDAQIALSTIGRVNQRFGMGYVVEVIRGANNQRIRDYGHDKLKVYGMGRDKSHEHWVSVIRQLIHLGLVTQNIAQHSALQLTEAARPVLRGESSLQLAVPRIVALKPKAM
The assay is described as above. The note with it: H14 library; 1:1 binding assumed; read-out: Surface mapping KD (apparent). Set-up: species or system E. coli. As to the method:
Pull-down assays with immobilized test proteins and foldameric LSM libraries were carried out. Proteins were equilibrated with LSM probes, and equilibrium bound fractions (FB) were determined from the unbound fractions measured by HPLC-MS methods. Hits were corrected with background binding of the resin. The protocol allowed all binding events to equilibrate irrespective of affinity, specificity, and binding kinetics. This was essential to judge overall druggability and promiscuity. Importantly, the concentration of protein and the total concentration of foldameric LSMs were equimolar, which minimized competition between the probes. This experimental setup approximated independent binding of individual library members. Results were visualized as heat maps of dissociation constants (Fig. 3).
Pull-down assay and data analysis
Pull-down assay. LSM sublibraries were screened separately as previously described.(2) Experiments were performed in the following buffers: (i) 20 mM pH 7.4 HEPES, 150 mM NaCl, 5 mM CaCl2 for CaM; (ii) 50 mM pH 7.4 HEPES, 150 mM NaCl, 1 mM TCEP, 1 mM CaCl2 for S100 proteins; (iii) 20 mM pH 7.4 HEPES, 150 mM NaCl, 1 mM TCEP for Gal-1 and (iv) 20 mM pH 7.4 HEPES, 150 mM NaCl for RecQ-WH. Assays were performed in paper filter spin cups (Thermo Scientific) with sample volumes of 100 µl. Hexahistidine-tagged proteins were immobilized on previously washed Co-NTA resin (TALON, Takara Bio USA, Inc., Mountain View, CA) in 64 µM final concentration. LSM sublibrary was added, in which each of the 64 library members were used at a concentration of 1 µM. Samples were incubated at room temperature for 30 min with shaking at 100 rpm. Then, samples were centrifuged at 1000 rpm for 2 min and washed with 100 µl pull-down buffer to remove unbound compounds.
The control experiments were performed using the same compounds and the resin but without the immobilized protein. In case of competitive assays, competitor peptides were added to LSM sublibrary samples in 200 µM final concentration. In the case of Gal-1, lactose (competitor) was used in a concentration of 10 mM. Experiments were performed at least twice. Mean […]
LC-MS methods and parameters. HPLC/ESI-MS analysis was used to characterize the samples from the pull-down assay. LC-MS analysis was performed with a Thermo Scientific Dionex UltiMate 3000 HPLC system interfaced to an LTQ ion trap mass spectrometer (Thermo Electron Corp., San Jose, CA, USA). Samples were injected onto an Aeris Widepore XB-C18 (250 x 4.6 mm) analytical HPLC column using gradient elution 5-80 % solution B during 25 minutes. For pull-down samples, eluent composition was 0.1% acetic acid in distilled water (Solution A) and 0.1% acetic acid in acetonitrile (solution B). Mass spectra were acquired in full scan mode from 200 to 2000 m/z range. For overlapping peaks, selective reaction monitoring (SRM) was […]
MS data analysis. Thermo Xcalibur 2.2 software was used for peak identification and integration. The majority of the foldameric fragments could be resolved independently via HPLC-MS/MS measurements based on molecular weight, MS fragmentation pattern and retention time. Peaks of some foldamers with β3-hIle or β3-hLeu in position R2 could not be resolved, these were integrated and averaged. In the processing method, each sample component was associated to a chromatographic peak based on previously identified mass (m/z) and retention time (ref (2) and Table S7-10). Using ICIS peak detection algorithm, the general detection and integration criteria were: smoothing points: 5, baseline window: 80, area noise factor: 5, peak noise factor: 10. Using these processing setups, all raw data files were reprocessed together and analyzed. Errors in peak identification during the automatic processing were corrected manually.
Calculation of the discussed parameters
1. Bound fractions (FB.) were calculated from the HPLC-MS intensity loss of the LSM probes compared to the control where no protein was immobilized to the resin: […]

For assay [1], the target named is T3, CaM (Bos taurus, UniProt P62157).
T3 construct: made in house; host or cells: E. coli BL21 (DE3)
The experiment in a line: Competition pull-down with native ligand TRPV1-Ct15. As to conditions: H14 library; competitor peptide 200 µM; read-out: Surface mapping KD (apparent), competition. It counts as binding, bovine.

Assay [2] deals with T4, Gal-1 (Homo sapiens, UniProt P09382).
T4 construct: made in house; host or cells: E. coli BL21(DE3)
T4 sequence (P09382 whole entry): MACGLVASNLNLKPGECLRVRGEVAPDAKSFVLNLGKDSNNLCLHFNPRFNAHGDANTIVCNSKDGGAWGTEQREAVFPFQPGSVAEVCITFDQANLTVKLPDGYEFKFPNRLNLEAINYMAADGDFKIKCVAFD
Briefly: Competition pull-down with lactose. The class given is binding. The note with it: H14 library; lactose 10 mM; read-out: Surface mapping KD (apparent), competition. In outline:
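His6-tagged proteins immobilized on Co-NTA resin at 64 µM final with 64-member LSM foldamer sublibraries (1 M each, as printed) in pH 7.4 HEPES/NaCl buffers (Ca2+/TCEP per target), 30 min RT; competitor peptides 200 µM final, lactose 10 mM for Gal-1. Bound fractions from LC-MS loss vs protein-free resin; KD assuming 1:1 binding.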

The target of assay [3] is T3, CaM. Briefly: Pull-down assay with immobilized protein and LSM libraries. The class given is binding, bovine. The note with it: H14 library; 1:2 stoichiometry assumed; read-out: Surface mapping KD (apparent). An outline of the steps:
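CaM buffer was 20 mM HEPES pH 7.4, 150 mM NaCl, 5 mM CaCl2. LSM sublibrary members ([…]) incubated 30 min, RT, with equimolar His-tagged protein on Co-NTA resin. HPLC-MS measured unbound probes; bound fraction relative to resin-only background gave dissociation constants.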

Assay [4] addresses T4, Gal-1. The description is as above. The class given is binding. The note with it: H14 library; 1:1 binding assumed; read-out: Surface mapping KD (apparent). An outline of the steps:
as §1

The next assay addresses T5, S100A4 (Homo sapiens, UniProt P26447).
T5 construct: made in house; host or cells: Escherichia coli BL21(DE3)
The description is as above. The class given is binding. As to conditions: for Kd: H14 library, 1:1 binding assumed, read-out: Surface mapping KD (apparent); for Affinity class of probe (high, medium, low) in pull-down: H14 probes selected for validation. An outline of the steps:
as §1

The structures appear in SMILES notation.

T5 sequence (P26447 whole entry): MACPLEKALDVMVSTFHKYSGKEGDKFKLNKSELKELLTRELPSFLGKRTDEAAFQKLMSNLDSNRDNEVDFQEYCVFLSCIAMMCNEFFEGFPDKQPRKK

As to `NC(=O)[C@H]1CCCC[C@@H]1NC(=O)C[C@H](Cc1c[nH]c2ccccc12)NC(=O)[C@H]1CCCC[C@@H]1NC(=O)[C@H]1CCCC[C@@H]1NC(=O)C[C@H](CC(=O)O)NC(=O)[C@H]1CCCC[C@@H]1N` [H14 DW], the Kd on S100B is 200 µM; at RecQ-WH, 165 µM; at CaM [1], 439 µM.

Take `NCCCC[C@@H](CC(=O)N[C@H]1CCCC[C@@H]1C(N)=O)NC(=O)[C@H]1CCCC[C@@H]1NC(=O)[C@H]1CCCC[C@@H]1NC(=O)C[C@H](CC(=O)O)NC(=O)[C@H]1CCCC[C@@H]1N` [H14 DK]: the Kd stood at 144 µM on S100B, 314 µM at RecQ-WH and 405 µM on Gal-1 [2].

`CSCC[C@@H](CC(=O)N[C@H]1CCCC[C@@H]1C(=O)N[C@H]1CCCC[C@@H]1C(=O)N[C@@H](CCCNC(=N)N)CC(=O)N[C@H]1CCCC[C@@H]1C(N)=O)NC(=O)[C@H]1CCCC[C@@H]1N` [H14 MR]: the Kd at CaM [3] worked out at 19 µM; at Gal-1 [4] it was 395 µM; at S100A4, 247 µM; at S100B it was 92 µM; at RecQ-WH, 457 µM; at Gal-1 [2] it was 310 µM.

`N=C(N)NCCC[C@@H](CC(=O)N[C@H]1CCCC[C@@H]1C(=O)N[C@H]1CCCC[C@@H]1C(=O)N[C@@H](CCCCN)CC(=O)N[C@H]1CCCC[C@@H]1C(N)=O)NC(=O)[C@H]1CCCC[C@@H]1N` [H14 RK]: the Kd is 22 µM at CaM [3]; 22 µM on S100B; 486 µM at RecQ-WH; 249 µM on CaM [1]; 323 µM at Gal-1 [2].

With `N=C(N)NCCC[C@@H](CC(=O)N[C@H]1CCCC[C@@H]1C(N)=O)NC(=O)[C@H]1CCCC[C@@H]1NC(=O)[C@H]1CCCC[C@@H]1NC(=O)C[C@H](Cc1ccc(O)cc1)NC(=O)[C@H]1CCCC[C@@H]1N` [H14 YR], the Kd at CaM [3] was 11 µM; at Gal-1 [4], 377 µM; on S100A4, 117 µM; at S100B it was 67 µM; on RecQ-WH, 421 µM; on CaM [1], 117 µM. In addition, the Kd at Gal-1 [2] came out at 309 µM.

On to `N=C(N)NCCC[C@@H](CC(=O)N[C@H]1CCCC[C@@H]1C(N)=O)NC(=O)[C@H]1CCCC[C@@H]1NC(=O)[C@H]1CCCC[C@@H]1NC(=O)C[C@H](CCCCN)NC(=O)[C@H]1CCCC[C@@H]1N` [H14 KR], for which the Kd at CaM [3] was determined as 22 µM; at S100B, 22 µM; on RecQ-WH it was 486 µM; at CaM [1], 249 µM; at Gal-1 [2], 323 µM.

Consider `CC(C)[C@@H](CC(=O)N[C@H]1CCCC[C@@H]1C(N)=O)NC(=O)[C@H]1CCCC[C@@H]1NC(=O)[C@H]1CCCC[C@@H]1NC(=O)C[C@H](CCCCN)NC(=O)[C@H]1CCCC[C@@H]1N` [H14 KV], for which the Kd on CaM [3] was 50 µM; on S100A4, 71 µM; at S100B, 102 µM; on RecQ-WH it was 442 µM; at CaM [1] it was 376 µM.

Consider `NC(=O)[C@H]1CCCC[C@@H]1NC(=O)C[C@H](Cc1ccccc1)NC(=O)[C@H]1CCCC[C@@H]1NC(=O)[C@H]1CCCC[C@@H]1NC(=O)C[C@H](CO)NC(=O)[C@H]1CCCC[C@@H]1N` [H14 SF], for which the Kd on CaM [3] was 30 µM; at Gal-1 [4], 267 µM; at S100A4 it was 71 µM; on S100B, 105 µM; at RecQ-WH, 182 µM; at Gal-1 [2], 312 µM.

`C[C@@H](CC(=O)N[C@H]1CCCC[C@@H]1C(N)=O)NC(=O)[C@H]1CCCC[C@@H]1NC(=O)[C@H]1CCCC[C@@H]1NC(=O)C[C@H](CCCNC(=N)N)NC(=O)[C@H]1CCCC[C@@H]1N` [H14 RA]: the Kd on CaM [3] worked out at 111 µM; at S100B, 188 µM; on RecQ-WH, 456 µM; at CaM [1], 449 µM.

For `N=C(N)NCCC[C@@H](CC(=O)N[C@H]1CCCC[C@@H]1C(N)=O)NC(=O)[C@H]1CCCC[C@@H]1NC(=O)[C@H]1CCCC[C@@H]1NC(=O)C[C@H](CCCNC(=N)N)NC(=O)[C@H]1CCCC[C@@H]1N` [H14 RR], the Kd on CaM [3] stood at 10 µM; on S100B, 18 µM; on RecQ-WH, 355 µM; at CaM [1], 103 µM. The “Binding” value on S100A4 (H14 probes) was “does not”; on S100B (H14 probes), “binds”. In addition, the entries for the “Affinity class of probe (high, medium, low) in pull-down” value on S100A4 and at S100B were “low” and “high”, respectively.

On to `N=C(N)NCCC[C@@H](CC(=O)N[C@H]1CCCC[C@@H]1C(=O)N[C@H]1CCCC[C@@H]1C(=O)N[C@H](CC(=O)N[C@H]1CCCC[C@@H]1C(N)=O)Cc1ccccc1)NC(=O)[C@H]1CCCC[C@@H]1N` [H14 RF], for which the Kd on CaM [3] is 4 µM; at S100A4, 65 µM; at S100B it was 16 µM; at RecQ-WH, 231 µM; on CaM [1], 350 µM. Also, the “Affinity class of probe (high, medium, low) in pull-down” value on S100A4 was “medium”; at S100B, “high”.

Consider `NC(=O)CC[C@@H](CC(=O)N[C@H]1CCCC[C@@H]1C(N)=O)NC(=O)[C@H]1CCCC[C@@H]1NC(=O)[C@H]1CCCC[C@@H]1NC(=O)C[C@H](Cc1c[nH]c2ccccc12)NC(=O)[C@H]1CCCC[C@@H]1N` [H14 WQ], for which the Kd on CaM [3] turned out to be 16 µM; at S100A4, 191 µM; at S100B, 161 µM; at RecQ-WH, 473 µM; on CaM [1], 495 µM.

Regarding `NC(=O)[C@H]1CCCC[C@@H]1NC(=O)C[C@H](Cc1c[nH]c2ccccc12)NC(=O)[C@H]1CCCC[C@@H]1NC(=O)[C@H]1CCCC[C@@H]1NC(=O)C[C@H](CCC(=O)O)NC(=O)[C@H]1CCCC[C@@H]1N` [H14 EW], the Kd was 305 µM on S100B, 212 µM on RecQ-WH and 458 µM on Gal-1 [2].
